From patent publication US20240336567A1, “PESTICIDAL AND HERBICIDAL COMPOUNDS AND METHODS OF USE THEREOF” (AG Plenus Ltd, priority 2021, published 2024)

Legend:
[1] = tested on: AMAPA; assay: In-planta LTP pre-emergence, visual phenotype; format: in vivo, Amaranthus palmeri; details: Amaranthus palmeri, 432 h, dicot, read-out: IG Inhibited growth (% effect)
Description: (§1) A basic panel of 8 weed species (Table 3) were sowed in 4×4×7 cm plastic pots containing inert sand (Sweet sand), intensively washed using osmosis water. Each specie was sowed in a separate pot. In each pot 10-15 seeds were sowed according to the specie viability. Sowing was performed one day before application. The plants were grown for 21 days in a controlled greenhouse (26±2° C. day 20±2° C. night). Hood irrigation (tap water+Shefer 5:3:8 8 mM) was given at a 50% water content by weight. Compounds were soluble in water (DDW), and commercial herbicide control was soluble in formulation B (Table 4). Application was conducted with an industrial sprayer (TeeJet 6502E nozzle) at a rate of 2 kg/ha and spray volume of […]. Pre-emergence advanced dose response experiment application was conducted at six rates between 1-0.0312 kg/ha and spray volume of […]. Percentage of emergence was evaluated at 15 DAA. Visual phenotyping was recorded using a scale of 0-6 (0: no visible effect, 6: maximum effect) at 18 DAA. All experiments included an untreated control, a solvent control and a positive control (commercial herbicide A.I.). Statistical analysis for visual phenotyping determined by a median value of ≥3.5 and Fisher test (pval≤0.05). Statistical analysis for plant emergence determined by % emergence ≥50 and T test (pval≤0.05), as well as Wilcox test (pval≤0.05).

[2] = tested on: LOLPE; assay: In-planta LTP pre-emergence, visual phenotype; format: in vivo, Lolium perenne; details: monocot
Description: as §1

[3] = tested on: MATCA; assay: In-planta LTP post-emergence, visual phenotype; format: in vivo, Matricaria chamomilla; details: dicot
Description: A basic panel of eight weed species (Table 3) sowed in 4×4×7 cm plastic pots containing a garden mix (klasmann). Each specie was sowed in a separate pot. In each pot, 10-15 seeds were sowed according to the specie viability. Timing of application determined at a 1-2 true leaf stage. The plants grew for 30 days in a controlled greenhouse (26±2° C. day, 20±2° C. night). Hood irrigation (tap water+Shefer 5:3:8 8 mM) was given at a 50% water content by weight. Two days before application, the tested plants thinned down to three plants per pot. Compounds were soluble in water (DDW), and commercial herbicide control was soluble in formulation B (Table 4). […] Plants were evaluated at 3 time points (4, 8, 12 days after application (DAA)). At each time point, visual phenotyping was recorded using a scale of 0-6 (0: no visible effect, 6: maximum effect). […]
Post-emergence advanced dose response experiment included 4 species: SETVI, ECHCO, AMAPA, ABUTH (Tables 3, 5). […] Plants were evaluated at 4 time points (6, 12, 18 and 26 DAA). At each time point, visual phenotyping was recorded using a scale of 0-6 (0: no visible effect, 6: maximum effect). […]
Post-emergence advanced wide panel experiment included 24 weed species (Table 5). […] Visual phenotyping was recorded at 4, 11, 17 and 20 DAA using a scale of 0-6 (0: no visible effect, 6: maximum effect). […]

[4] = tested on: Eragrostis teff; assay: HTPS - Monocot - Pre-emergence; format: in vivo; details: N/A: not active
Description: (§2) Arabidopsis thaliana seeds were sown in 96 well plates filled with irrigated Sweet sand (10%>clay) that is washed from salts and minerals using tap water. 5-10 seeds were sown in the center of each well. 7-8 days post sowing, at 2 true leaves stage, thinning out was performed to ensure that compound application is done on a single plant per well. The plates were placed in a controlled greenhouse in a random order inside a bath which allows flooding irrigation with tap water supplemented with a fertilizer. Applied compounds were dissolved into a final solution of 50% acetone, 49.9% DDW, 0.1% tween-20. A 96 well plate was used as a stock plate for preparing application solutions for 8 repeats. Each row contained different concentrations per chemical. Maximal concentration for application was 1.5 Kg/Ha and dilution factor is 2.5. Chemical application was performed one day after thinning out in a chemical hood. 5 μL applied on first two true leaves in each well using 12 channel pipettes. Data collection: RGB (red, green, blue) data for green area per well was documented using camera. Data is collected at a few time points during the experiment: one day after thinning and before chemical application, two-, six- or nine-days post application. During the last two documentations, visual phenotyping was performed. Data analysis: Given RGB results and visual phenotype scores, a student t-test conducted to compare between treatment and control performance for continuous data (RGB) and Fisher exact test to analyze the non-continuous data (phenotypic scores). Dose-Response curves are generated for each treatment to infer ED50 and max. inhibition parameters, using treatment's log concentration range as the […] variable and normalized green area. These experiments are conducted similarly except that either Arabidopsis thaliana or Eragrostis teff seeds were sowed (5-10 or 5-7, respectively), plant thinning out was not performed, compound dissolved into a final solution of 50% acetone, 49.9% DDW, compound application was done at 30 μL volume per well directly on sowed soil before plant emergence and data was collected 10 or 7 days after chemical application on dicot or monocot plants, respectively. Plate imaging performed at 11 and 18 DAA. RGB data for green area per well was documented and used to extract % inhibition. Dose-Response curves were built for each treatment to infer ED50, ED75 and ED90 parameters, using treatment's log concentration range as the independent variable and normalized green area as the dependent variable. Treatments were compared to controls performance given RGB results and using student's t-test (p-val≤0.05).

[5] = in vitro thermal shift (binding of compound to the target); details: thermal shift caused by binding of the compound to the (unnamed) target
[6] = tested on: SETVI; assay: In-planta LTP pre-emergence, visual phenotype; format: in vivo, Setaria viridis; details: Setaria viridis, 432 h, monocot, read-out: IG Inhibited growth (% effect)
Description: as §1

[7] = tested on: Arabidopsis thaliana; assay: HTPS (high throughput on soil) - Dicot - Post-emergence; format: in vivo; details: N/A: not active
Description: as §2, with “area.” for “area. These experiments are conducted similarly except that either Arabidopsis thaliana or Eragrostis teff seeds were sowed (5-10 or 5-7, respectively), plant thinning out was not performed, compound dissolved into a final solution of 50% acetone, 49.9% DDW, compound application was done at 30 μL volume per well directly on sowed soil before plant emergence and data was collected 10 or 7 days after chemical application on dicot or monocot plants, respectively.”

[8] = tested on: POAAN; assay: In-planta LTP pre-emergence, visual phenotype; format: in vivo, Poa annua; details: monocot
Description: as §1

NCCOc1ccc(F)c(C(=O)O)c1 [Compound 129]
pest or weed control at 2000 g/ha [1]: 40% | IG Inhibited growth (% effect) [2]: IG (40) % | LOD Lodging (% effect) [3]: LOD^3 (40) % | HTPS - Monocot - Pre ED50 [4]: 550 g/ha | Emax ([4]; read-out: HTPS - Monocot - Pre Max effect): 86% | in vitro Thermal Shift [5]: 9 °C | pest or weed control at 2000 g/ha [6]: 40% | Emax ([7]; read-out: HTPS - Dicot - Post Max effect): 81% | HTPS - Dicot - Post ED50 ([7]; from normalized green area): 45 g/ha | pest or weed control at 2000 g/ha ([8]; Poa annua, 432 h, read-out: IG Inhibited growth (% effect)): 80% | DE Disturbed emergence (% effect) [8]: DE (80) %
